From patent US20160271178A1, “NANOPARTICLE-CONTAINING HYDROGELS” (priority 2013, published 2016)

Test system: P. aeruginosa
Assay: Bacterial suspension assay (OD measurement)
Type: cell-based
Conditions: tetracycline 10 and 20 μg/mL; 24 h
Method: Gels were prepared in 24-well sterile Nunc plates. 10 mM AgNO3 solution in 100 mM Tris-buffer (pH=8.5) was freshly prepared and used to dissolve the peptide to a final concentration of 10 mg/mL. The resultant solution was sonicated for 15-20 s to ensure complete dissolution of the peptide. 400 μL of the peptide solution was then aliquoted into each well and allowed to spread evenly on the surface. […] Prior to use, the plates were exposed to short-wavelength UV at 254 nm for 5 minutes to allow Ag NP formation. For the control gels, 100 mM Tris buffer without AgNO3 was used for Ac-LK6—NH2 hydrogel preparation.
50 μL of bacterial stock was inoculated overnight in 5 mL of Luria-Bertani (LB) medium (pH=7.5), with constant shaking at 300 rpm at 37° C. The log-phase bacterial solution was then diluted in LB medium to obtain an O.D. of 0.07 (at 600 nm). This was used as the starting bacterial solution (0 hr reading) and 400 μL of the solution was dispensed into each well of the 24-well plate containing the hydrogels. […] Ac-LK6—NH2 hydrogels without Ag NPs and bacteria-only solutions served as the negative controls. […] For the O.D. readings, 100 μL of the bacterial solution was transferred into a transparent 96 well Nunc plate just before measurement, to prevent the hydrogel layer from influencing absorbance measurements. […]

Compound: CN(C)[C@@H]1C(O)=C(C(N)=O)C(=O)[C@@]2(O)C(O)=C3C(=O)c4c(O)cccc4[C@@](C)(O)[C@H]3C[C@@H]12 [tetracycline, Tetracycline]
- growth inhibition compared to the untreated control: about 50%
